Literature values as cited in patent US10821087B2, “Stabilized injectable emulsion of Propofol and Ketamine” (NEON LABORATORIES LIMITED, priority 2015, dated 2020).

Tested on: Propofol induced pain
Details: 100 μg/kg Ketamine administered just before Propofol

## CNC1(c2ccccc2Cl)CCCCC1=O (centres unmarked) [Ketamine]
  adverse hemodynamic effects: without significant adverse hemodynamic effects
  incidence and intensity of Propofol induced pain: reduce the incidence and intensity of Propofol induced pain
